Test results reported in publication PMC3914206.

Assays:
Assay type in all cases: binding
Conditions in all cases: Compound Concentration 10 µM
panel of 442 kinases [1] = molecular target: T1, panel of 442 kinases (Homo sapiens, UniProt P09769)
T1 construct: purchased KINOMEscan
Source text: (§1) We assessed the selectivity of members of this scaffold using the KINOMEscan methodology across a near comprehensive panel of 442 kinases [[18,27]].

panel of 442 kinases [2] = molecular target: T2, panel of 442 kinases (Homo sapiens, UniProt P17948)
T2 construct: purchased KINOMEscan
T2 sequence (P17948 27-1338): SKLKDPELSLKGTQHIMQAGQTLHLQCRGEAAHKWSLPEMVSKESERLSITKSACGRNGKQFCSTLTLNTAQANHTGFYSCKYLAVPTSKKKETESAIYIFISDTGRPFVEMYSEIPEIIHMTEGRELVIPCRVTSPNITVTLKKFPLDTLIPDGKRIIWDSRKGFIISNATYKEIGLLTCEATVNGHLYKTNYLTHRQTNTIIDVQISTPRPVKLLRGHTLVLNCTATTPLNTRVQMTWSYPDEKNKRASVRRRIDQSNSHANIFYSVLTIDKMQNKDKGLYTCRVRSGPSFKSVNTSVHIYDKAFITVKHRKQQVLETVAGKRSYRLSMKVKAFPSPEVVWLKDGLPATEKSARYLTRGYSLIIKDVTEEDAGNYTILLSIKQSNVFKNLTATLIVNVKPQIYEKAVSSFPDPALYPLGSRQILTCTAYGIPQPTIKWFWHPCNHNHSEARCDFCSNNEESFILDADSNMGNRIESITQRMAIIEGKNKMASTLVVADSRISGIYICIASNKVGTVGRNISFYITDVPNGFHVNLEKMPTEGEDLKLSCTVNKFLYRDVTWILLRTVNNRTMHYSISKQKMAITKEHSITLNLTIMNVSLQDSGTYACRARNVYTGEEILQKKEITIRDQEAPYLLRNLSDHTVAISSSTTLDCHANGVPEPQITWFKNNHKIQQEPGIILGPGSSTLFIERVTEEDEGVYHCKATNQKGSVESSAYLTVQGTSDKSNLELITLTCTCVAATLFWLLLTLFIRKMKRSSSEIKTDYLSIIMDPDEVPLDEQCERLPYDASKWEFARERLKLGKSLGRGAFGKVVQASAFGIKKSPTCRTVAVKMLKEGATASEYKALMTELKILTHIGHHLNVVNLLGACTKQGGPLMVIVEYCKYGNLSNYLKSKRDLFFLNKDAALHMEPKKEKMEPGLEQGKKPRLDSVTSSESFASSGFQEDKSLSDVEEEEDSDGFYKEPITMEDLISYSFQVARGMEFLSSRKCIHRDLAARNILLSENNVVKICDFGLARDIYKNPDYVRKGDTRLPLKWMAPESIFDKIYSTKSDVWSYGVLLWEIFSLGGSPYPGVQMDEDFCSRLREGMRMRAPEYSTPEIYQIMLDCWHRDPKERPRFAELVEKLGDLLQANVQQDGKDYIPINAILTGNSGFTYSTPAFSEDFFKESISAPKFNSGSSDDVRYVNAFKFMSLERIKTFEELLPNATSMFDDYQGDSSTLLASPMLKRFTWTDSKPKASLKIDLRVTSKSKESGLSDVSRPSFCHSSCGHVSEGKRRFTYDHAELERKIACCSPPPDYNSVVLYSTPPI
Source text: as §1

panel of 442 kinases [3] = molecular target: T3, panel of 442 kinases (Homo sapiens, UniProt Q02156)
T3 construct: purchased KINOMEscan
T3 sequence (Q02156 1-737): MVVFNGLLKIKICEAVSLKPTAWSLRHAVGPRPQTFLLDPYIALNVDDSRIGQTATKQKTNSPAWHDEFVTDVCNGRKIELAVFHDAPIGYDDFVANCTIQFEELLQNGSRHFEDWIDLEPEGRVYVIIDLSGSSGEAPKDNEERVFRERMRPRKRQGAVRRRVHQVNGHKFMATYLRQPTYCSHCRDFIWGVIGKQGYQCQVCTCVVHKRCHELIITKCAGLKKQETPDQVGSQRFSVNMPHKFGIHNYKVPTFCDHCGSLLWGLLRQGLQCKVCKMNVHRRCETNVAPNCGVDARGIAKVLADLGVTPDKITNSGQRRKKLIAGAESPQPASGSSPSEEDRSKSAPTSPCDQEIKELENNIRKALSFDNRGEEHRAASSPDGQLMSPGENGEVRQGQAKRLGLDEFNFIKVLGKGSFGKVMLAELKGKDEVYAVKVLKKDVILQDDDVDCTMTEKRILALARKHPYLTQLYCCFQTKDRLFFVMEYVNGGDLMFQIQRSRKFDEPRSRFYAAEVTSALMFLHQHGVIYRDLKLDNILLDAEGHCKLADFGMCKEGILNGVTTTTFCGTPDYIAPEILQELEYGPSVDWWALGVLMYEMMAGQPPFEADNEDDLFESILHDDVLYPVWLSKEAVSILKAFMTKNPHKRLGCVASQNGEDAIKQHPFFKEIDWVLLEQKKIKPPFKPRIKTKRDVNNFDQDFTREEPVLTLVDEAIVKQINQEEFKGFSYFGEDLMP
Source text: as §1

T1 sequence (P09769 whole entry): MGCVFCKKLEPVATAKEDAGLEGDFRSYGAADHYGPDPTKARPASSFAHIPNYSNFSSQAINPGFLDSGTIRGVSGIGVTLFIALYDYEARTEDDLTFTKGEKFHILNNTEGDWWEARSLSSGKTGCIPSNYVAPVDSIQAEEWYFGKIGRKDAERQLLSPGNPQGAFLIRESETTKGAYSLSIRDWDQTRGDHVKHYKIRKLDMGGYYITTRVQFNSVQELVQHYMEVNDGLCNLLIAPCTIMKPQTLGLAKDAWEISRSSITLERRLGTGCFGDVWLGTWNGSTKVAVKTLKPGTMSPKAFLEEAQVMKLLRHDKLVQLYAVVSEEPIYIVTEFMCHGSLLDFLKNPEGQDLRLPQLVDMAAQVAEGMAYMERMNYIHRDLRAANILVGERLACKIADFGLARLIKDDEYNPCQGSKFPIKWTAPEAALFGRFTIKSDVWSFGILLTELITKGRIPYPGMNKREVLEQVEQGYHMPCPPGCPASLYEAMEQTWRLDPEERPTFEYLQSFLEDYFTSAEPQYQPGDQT

## COc1cc(C(=O)N2CCC(N3CCN(C)CC3)CC2)ccc1Nc1ncc2c(n1)N(C1CCCC1)c1ccccc1C(=O)N2C [Compound 25, 11-cyclopentyl-2-((2-methoxy-4-(4-(4-methylpiperazin-1-yl)piperidine-1-carbonyl)phenyl)amino)-5-methyl-5H-benzo[e]pyrimido[5,4-b][1,4]diazepin-6(11H)-one]
Panel of 442 kinases [1]
  KINOMEscan: FGR: 98
Panel of 442 kinases [2]
  KINOMEscan: FLT1: 100
Panel of 442 kinases [3]
  KINOMEscan: PRKCE: 79

## COc1cc(C(=O)N2CCC(N3CCN(C)CC3)CC2)ccc1Nc1ncc2c(n1)N1CCc3cccc(c31)C(=O)N2C [Compound 24]
Panel of 442 kinases [1]
  KINOMEscan: FGR: 79
Panel of 442 kinases [3]
  KINOMEscan: PRKCE: 72

## COc1cc(C(=O)N2CCC(N3CCN(C)CC3)CC2)ccc1Nc1ncc2c(n1)N(C)c1ccccc1C(=O)N2C [15 (LRRK2-IN-1)]
Panel of 442 kinases [1]
  KINOMEscan: FGR: 84
Panel of 442 kinases [2]
  KINOMEscan: FLT1: 100
Panel of 442 kinases [3]
  KINOMEscan: PRKCE: 100

## CCOc1cc(C(=O)N2CCC(N3CCN(C)CC3)CC2)ccc1Nc1ncc2c(n1)N(C1CCCC1)c1ccccc1C(=O)N2C [Compound 26]
Panel of 442 kinases [1]
  KINOMEscan: FGR: 99
Panel of 442 kinases [2]
  KINOMEscan: FLT1: 100
Panel of 442 kinases [3]
  KINOMEscan: PRKCE: 98
